This note sets out measurements from publication PMC4649089, “Urea Unfolding Study of E. coli Alanyl-tRNA Synthetase and Its Monomeric Variants Proves the Role of C-Terminal Domain in Stability” (Journal of Amino Acids, 2015).

Data set [1] concerns the target T1, alaRS (Escherichia coli, UniProt P00957, G675D).
T1 construct: gene alaS; full length, 875 residues, N-terminal His tag (pET28a), expressed in E. coli BL21(DE3), homodimer, 192500 Da
T1 sequence (P00957 2-876 G675D): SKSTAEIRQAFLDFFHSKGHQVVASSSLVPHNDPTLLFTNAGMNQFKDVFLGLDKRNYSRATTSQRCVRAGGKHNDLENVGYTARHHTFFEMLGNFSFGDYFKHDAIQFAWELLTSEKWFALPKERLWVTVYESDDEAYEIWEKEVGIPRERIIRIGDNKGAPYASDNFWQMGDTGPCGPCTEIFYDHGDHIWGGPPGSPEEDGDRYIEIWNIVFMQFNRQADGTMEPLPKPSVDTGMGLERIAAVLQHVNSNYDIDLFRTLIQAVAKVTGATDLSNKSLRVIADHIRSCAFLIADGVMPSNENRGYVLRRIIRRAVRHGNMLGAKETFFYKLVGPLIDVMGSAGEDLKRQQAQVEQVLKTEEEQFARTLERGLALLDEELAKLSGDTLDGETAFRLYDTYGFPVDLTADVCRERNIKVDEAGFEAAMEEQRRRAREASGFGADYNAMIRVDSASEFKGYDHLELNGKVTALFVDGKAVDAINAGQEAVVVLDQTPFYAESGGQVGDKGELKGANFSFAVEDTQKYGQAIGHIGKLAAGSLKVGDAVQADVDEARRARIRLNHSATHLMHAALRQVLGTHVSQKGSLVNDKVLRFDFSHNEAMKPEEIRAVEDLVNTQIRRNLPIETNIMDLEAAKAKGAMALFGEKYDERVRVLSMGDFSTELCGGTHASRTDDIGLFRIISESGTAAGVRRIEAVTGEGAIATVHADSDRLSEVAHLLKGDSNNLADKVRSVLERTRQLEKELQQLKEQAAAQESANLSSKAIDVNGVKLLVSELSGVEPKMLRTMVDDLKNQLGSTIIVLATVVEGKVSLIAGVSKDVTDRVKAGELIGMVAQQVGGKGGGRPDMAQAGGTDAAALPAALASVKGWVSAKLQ
Description: ANS fluorescence titration. It is filed as binding. Particulars: read-out: dissociation constant.

In data set [2] the target is T2, WT-alaRS (Escherichia coli, UniProt P00957).
T2 construct: gene alaS; full length, 875 residues, N-terminal His tag (pET28a), expressed in E. coli BL21(DE3), homodimer, 192500 Da
T2 sequence (P00957 2-876): T1 sequence (P00957 2-876 G675D) with D674G
Description: ANS fluorescence titration. It is filed as binding. The note with it: read-out: dissociation constant.

Data set [3] concerns the target T3, N461 alaRS (Escherichia coli, UniProt P00957).
T3 construct: gene alaS; N-terminal residues 1-461 (aminoacylation and tRNA recognition domain), N-terminal His tag (pET28a), expressed in E. coli BL21(DE3), monomer, 50710 Da
T3 sequence (P00957 2-462): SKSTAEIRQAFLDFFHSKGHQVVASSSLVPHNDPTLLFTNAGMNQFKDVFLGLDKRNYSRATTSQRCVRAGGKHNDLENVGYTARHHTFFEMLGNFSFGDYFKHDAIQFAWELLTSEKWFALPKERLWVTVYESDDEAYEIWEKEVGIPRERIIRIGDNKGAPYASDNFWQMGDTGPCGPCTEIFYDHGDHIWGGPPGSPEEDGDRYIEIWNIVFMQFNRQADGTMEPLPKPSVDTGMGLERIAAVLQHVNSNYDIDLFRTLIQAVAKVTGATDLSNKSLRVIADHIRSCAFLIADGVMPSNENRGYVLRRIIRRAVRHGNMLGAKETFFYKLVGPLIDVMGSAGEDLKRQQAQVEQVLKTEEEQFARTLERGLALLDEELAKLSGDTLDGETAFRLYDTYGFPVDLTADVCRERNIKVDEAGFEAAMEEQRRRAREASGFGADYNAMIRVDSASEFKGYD
Description: ANS fluorescence titration. It is filed as binding. Particulars: read-out: dissociation constant.

Data set [4] concerns the target T4, N700 alaRS (Escherichia coli, UniProt P00957).
T4 construct: gene alaS; N-terminal residues 1-700, N-terminal His tag (pET20a), expressed in E. coli BL21(DE3), monomer, 77000 Da
T4 sequence (P00957 2-701): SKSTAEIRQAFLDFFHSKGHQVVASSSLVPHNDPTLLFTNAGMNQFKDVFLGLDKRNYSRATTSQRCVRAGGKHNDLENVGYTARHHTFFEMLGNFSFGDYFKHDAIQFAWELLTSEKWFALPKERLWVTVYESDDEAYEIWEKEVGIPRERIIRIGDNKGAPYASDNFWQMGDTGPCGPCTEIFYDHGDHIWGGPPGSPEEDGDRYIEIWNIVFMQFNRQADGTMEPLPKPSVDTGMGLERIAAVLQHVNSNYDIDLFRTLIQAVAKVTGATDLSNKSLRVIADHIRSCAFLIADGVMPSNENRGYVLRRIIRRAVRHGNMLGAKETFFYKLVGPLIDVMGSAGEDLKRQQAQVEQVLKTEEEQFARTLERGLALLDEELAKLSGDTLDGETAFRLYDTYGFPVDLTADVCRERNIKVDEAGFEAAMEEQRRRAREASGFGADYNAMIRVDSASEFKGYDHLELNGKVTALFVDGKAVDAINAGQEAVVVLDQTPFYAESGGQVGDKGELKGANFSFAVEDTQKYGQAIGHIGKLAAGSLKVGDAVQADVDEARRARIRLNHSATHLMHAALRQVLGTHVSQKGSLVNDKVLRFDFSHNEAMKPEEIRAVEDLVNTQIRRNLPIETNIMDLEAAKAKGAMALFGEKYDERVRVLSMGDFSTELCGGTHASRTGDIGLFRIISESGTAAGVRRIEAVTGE
Description: ANS fluorescence titration. It is filed as binding. The note with it: read-out: dissociation constant.

Data set [5] deals with the molecule itself. Description: AUC; sedimentation equilibrium, loading concentrations 5 μM, 10 μM and 20 μM (monomer), 20°C, 100 mM Tris-HCl pH 8.0, global single-species fit in SEDPHAT.

Broadly, the stoichiometry N is the number of molecules, sites or subunits per partner or assembly.

Numbering of substitutions follows the chain as printed.

Take `O=S(=O)(O)c1cccc2cccc(Nc3ccccc3)c12` [ANS]: the Kd in data set [1], in data set [2], in data set [3] and in data set [4] was 1000 to 5000 nM in each case.

B1: wild type E. coli alanyl-tRNA synthetase (enzyme, UniProt P00957 1-876, looked up)
chain: MSKSTAEIRQAFLDFFHSKGHQVVASSSLVPHNDPTLLFTNAGMNQFKDVFLGLDKRNYSRATTSQRCVRAGGKHNDLENVGYTARHHTFFEMLGNFSFGDYFKHDAIQFAWELLTSEKWFALPKERLWVTVYESDDEAYEIWEKEVGIPRERIIRIGDNKGAPYASDNFWQMGDTGPCGPCTEIFYDHGDHIWGGPPGSPEEDGDRYIEIWNIVFMQFNRQADGTMEPLPKPSVDTGMGLERIAAVLQHVNSNYDIDLFRTLIQAVAKVTGATDLSNKSLRVIADHIRSCAFLIADGVMPSNENRGYVLRRIIRRAVRHGNMLGAKETFFYKLVGPLIDVMGSAGEDLKRQQAQVEQVLKTEEEQFARTLERGLALLDEELAKLSGDTLDGETAFRLYDTYGFPVDLTADVCRERNIKVDEAGFEAAMEEQRRRAREASGFGADYNAMIRVDSASEFKGYDHLELNGKVTALFVDGKAVDAINAGQEAVVVLDQTPFYAESGGQVGDKGELKGANFSFAVEDTQKYGQAIGHIGKLAAGSLKVGDAVQADVDEARRARIRLNHSATHLMHAALRQVLGTHVSQKGSLVNDKVLRFDFSHNEAMKPEEIRAVEDLVNTQIRRNLPIETNIMDLEAAKAKGAMALFGEKYDERVRVLSMGDFSTELCGGTHASRTGDIGLFRIISESGTAAGVRRIEAVTGEGAIATVHADSDRLSEVAHLLKGDSNNLADKVRSVLERTRQLEKELQQLKEQAAAQESANLSSKAIDVNGVKLLVSELSGVEPKMLRTMVDDLKNQLGSTIIVLATVVEGKVSLIAGVSKDVTDRVKAGELIGMVAQQVGGKGGGRPDMAQAGGTDAAALPAALASVKGWVSAKLQ
notes: alanyl-tRNA synthetase (alaRS), E. coli, full length, printed as 875 residues per subunit; Clone was a gift from Paul Schimmel; homodimer by sedimentation equilibrium and velocity; also called WT-alaRS; WT; source: E. coli BL21 (DE3), pET28a, purified (Ni-NTA agarose)
On to B1, for which the “stoichiometry N” value in data set [5] was determined as 2.
